Article PMC3229523, “Identification of Lactoferricin B Intracellular Targets Using an Escherichia coli Proteome Chip” (PLoS ONE, 2011)
Entries after “also recorded” stand apart in the source; their conditions may differ. Ends that are not written are not given here. * marks the point of attachment. Biotin = O=C1N[C@H]2[C@H](CS[C@H]2CCCCC(=O)*)N1

What was measured:
E. coli K-12 MG1655 = experiment: E. coli growth inhibition (growth curves, OD595); format: cell-based; details: 22.4 µM, approx. 10^7 CFU/ml, LB medium, 37°C with shaking, OD595 every 20 min for 7 h 20 min, PBS negative control, Figure 2
Experimental: The E. coli K-12 MG1655 strain was first inoculated into LB medium and incubated at 37°C with shaking for 16 h. After incubation, the culture was diluted to approximately 10^7 CFU/ml using LB medium. Then, 22.4 µM of N-terminal biotinylated LfcinB (Kelowna Inc.), LfcinB (Kelowna Inc.) or biotin (Thermo) were individually added to the diluted cultures in a 96-well plate. PBS was used as a negative control. Finally, each compound or PBS with E. coli was incubated at 37°C with shaking and the growth curves were observed by measuring the OD595 value every 20 min for 7 h 20 min in a microplate reader (Synergy 2, BioTek®).

NrdF = experiment: Fluorescence polarization assay, NrdF; format: binding, E. coli
Description: (§1) FP assays, investigations of the binding between two molecules in a homogeneous aqueous environment, were used to validate the identified 153 proteins. […] If a fluorophore only binds to a small molecule, such as peptide, the rotation of the complex is fast and the light emits in a different plane of polarization. Therefore, the degree of polarization is low. However, once a fluorophore binds to a large molecule, the bound complex is stimulated with polarized light. The light emits in the same polarized plane, and the complex is maintained in the same plane of polarization, causing an increase in the degree of polarization [22]–[24]. The amount of molecules binding to a fluorophore influences the degree of polarization. In this study, LfcinB was labeled with DyLight™ 549 as a reference value. Once the protein bound to LfcinB, like a fluorophore binds to a large molecule, a high degree of polarization is expected.
(§2) Before the assays, LfcinB was labeled with DyLight™ 549 and tested proteins were quantified with a Pierce® bicinchoninic acid (BCA™) protein assay (Thermo). To label the LfcinB, DyLight™ 549-NHS ester and LfcinB (68∶1, mole/mole) were mixed in PBS at room temperature for 1 h, a D-Salt™ polyacrylamide desalting column (Thermo) was used to remove excess dye and the labeling efficiency of the eluted solution was calculated. […]

MetL = experiment: Fluorescence polarization assay, MetL; format: binding, E. coli
Description: as §1, §2

YnhE = experiment: Fluorescence polarization assay, YnhE; format: binding, E. coli; details: 100 nM DyLight 549-labeled LfcinB; protein 0.025-0.4 µM; data not shown
Description: as §1, §2

[1] = test system: E. coli K-12 BW25113 (isogenic parent) strain; experiment: Knockout assay, isogenic parent strain; format: cell-based; details: 32 µM LfcinB, LB medium, 37°C, approx. 10^7 CFU/ml
Experimental: The E. coli K-12 BW25113 (isogenic parent) strain and the 16 knockout strains were obtained from the E. coli Genetic Resources at the Coli Genetic Stock Center (CGSC) at Yale University. The strains were inoculated into LB medium, and incubated at 37°C with shaking. After 16 h of incubation, the cultures were diluted to approximately 10^7 CFU/ml with LB medium. Thirty-two µM of LfcinB were then added to the cultures in a 96-well plate. PBS was used as a negative control. Cultures with LfcinB or PBS were then incubated at 37°C with shaking in a microplate reader and the growth was observed by measuring the OD595 value every 20 min for 7 h 20 min.

## Lactoferricin B (Biotin-FKCRRWQWRMKKLGAPSITCVRRAF; ends and bridges not checked) [LfcinB]
E. coli K-12 MG1655
  growth curves / inhibition of E. coli growth: exhibited the same inhibition of E. coli growth; also recorded: exhibit the same antibacterial activity
NrdF; 100 nM DyLight 549-labeled LfcinB, protein 0.025-0.4 µM, PBS, 0.005% BSA, 0.01% Triton X-100, room temperature, 1 h, Figure 5B
  degree of polarization vs BSA: higher polarization than the negative control
NrdF; NrdF, two-fold dilution 0.4 µM to 0.025 µM, 100 nM labeled LfcinB
  concentration dependence of polarization: increased with increasing concentrations of these 4 proteins
MetL; 100 nM DyLight 549-labeled LfcinB, protein 0.025-0.4 µM, PBS, 0.005% BSA, 0.01% Triton X-100, room temperature, 1 h, Figure 5C
  degree of polarization vs BSA: higher polarization than the negative control
MetL; MetL, two-fold dilution 0.4 µM to 0.025 µM, 100 nM labeled LfcinB
  concentration dependence of polarization: increased with increasing concentrations of these 4 proteins
YnhE
  binding to YnhE: confirmed to bind to LfcinB
[1]
  growth with LfcinB: inhibited the growth of the isogenic parent strain
